The source of these data is ChEMBL document CHEMBL2401646 (Bioorg Med Chem Lett, 2013).

Usually IC50 stands for the concentration that gives 50% inhibition. A word on the solubility: it is the concentration that dissolves in the medium under given conditions. As a reminder, the bioavailability is dose-corrected exposure relative to a reference, in per cent. Read a high bioavailability as good availability. Broadly, the half-life is how long it takes for the measured level to halve. Lower therefore signals fast loss. The clearance is the volume of plasma or blood freed of the substance per unit of time. A lower clearance goes with inefficient removal.

Data set [1] in a line: Antitumor activity against human U87MG cells xenografted in nu/nu CD1 mouse model assessed as tumor growth inhibition at 200 mg/kg, po qd for 14 days. In kind it is functional, U-87MG ATCC. To be noted: U-87 MG, 336 h, read-out: TGI. For orientation: In xenograft studies the graft and the host belong to different species.
Data set [2] deals with SNU-5. The experiment in a line: Antitumor activity against human SNU5 cells xenografted in nu/nu CD1 mouse model assessed as tumor growth inhibition at 200 mg/kg, po qd for 20 days. To be noted: SNU-5, po, 480 h, read-out: TGI.
Data set [3] concerns the target T1, Hepatocyte growth factor receptor (Homo sapiens, UniProt P08581). Nature of the data set: Inhibition of cMET (unknown origin) using biotinylated poly(Glu,Tyr) as substrate after 60 mins.
Data set [4] relates to Mus musculus. Nature of the data set: Toxicity in human U87MG cells xenografted nu/nu CD1 mouse model assessed as body weigh loss at 100 mg/kg, po bid for 14 days. Conditions: in vivo, 336 h. On the set-up: dose 100 mg/kg, route oral. The data set is classed as organism-based, U-87MG ATCC.
Data set [5] in a line: Solubility of the compound at pH 3. The data set is classed as physicochemical. Conditions: buffer.
Data set [6] is described as follows: Oral bioavailability in Sprague-Dawley rat at 20 mg/kg. The data set is classed as ADME, organism-based. To be noted: in vivo.
The test system of a further data set is MKN-45. Nature of the data set: Antiproliferative activity against human MKN45 cells after 3 days by CellTiter-Glo assay. Conditions: MKN-45, 72 h. In kind it is functional, cell-based. On the technique in general: In ATP-based viability assays light output follows the ATP content of the culture.
Data set [7] can be described thus: Half life in CD1 mouse at 2 mg/kg, iv. On the set-up: dose 2 mg/kg, route intravenous. Conditions: in vivo. In kind it is ADME, organism-based.
Data set [8] has as its target T1, Hepatocyte growth factor receptor. Nature of the data set: Inhibition of cMET in human MKN45 cells assessed as phosphorylated MET levels after 4 hrs. The data set is classed as cell-based, MKN-45.
Another data set has as its target Aurora kinase B (Homo sapiens, UniProt Q96GD4). The experiment in a line: Inhibition of aurora-B (unknown origin) autophosphorylation.
Data set [9] relates to SNU-5. The experiment in a line: Antitumor activity against human SNU5 cells xenografted in nu/nu CD1 mouse model assessed as maximum tumor regression at 50 mg/kg, po qd for 20 days.
Data set [10] in a line: Antitumor activity against human U87MG cells xenografted in nu/nu CD1 mouse model assessed as maximum tumor regression at 200 mg/kg, po qd for 14 days. The data set is classed as functional, U-87MG ATCC.
Data set [11] relates to Mus musculus. Nature of the data set: Inhibition of MET autophosphorylation at Y1234/1235 in human MKN45 cells xenografted in mouse at 100 mg/kg, po up to 8 hrs. The data set is classed as functional. To be noted: MKN-45, 8 h.
The test system of data set [12] is Mus musculus. The experiment in a line: Inhibition of MET autophosphorylation at Y1234/1235 in human MKN45 cells xenografted in mouse at 100 mg/kg, po after 24 hrs. In kind it is functional. To be noted: MKN-45, 24 h.
Data set [13] deals with Macrophage-stimulating protein receptor (Homo sapiens, UniProt Q04912). Nature of the data set: Inhibition of RON (unknown origin) autophosphorylation.
Data set [14] concerns the target Hepatocyte growth factor receptor (Homo sapiens, UniProt P08581, Y1230C). Nature of the data set: Inhibition of cMET Y1230C mutant (unknown origin) autophosphorylation.
A short description of data set [15]: Half life in Sprague-Dawley rat at 2 mg/kg, iv. On the set-up: dose 2 mg/kg, route intravenous. The data set is classed as ADME, organism-based. To be noted: in vivo.
Data set [16] deals with SNU-5. Nature of the data set: Antitumor activity against human SNU5 cells xenografted in nu/nu CD1 mouse model assessed as tumor growth inhibition at 100 mg/kg, po qd for 20 days. To be noted: SNU-5, po, 480 h, read-out: TGI.
Data set [17] can be described thus: Antitumor activity against human U87MG cells xenografted in nu/nu CD1 mouse model assessed as tumor growth inhibition at 100 mg/kg, po bid for 14 days. In kind it is functional, U-87MG ATCC. To be noted: U-87 MG, 336 h, read-out: TGI.
The nature of data set [18]: Antitumor activity against human U87MG cells xenografted in nu/nu CD1 mouse model assessed as tumor growth inhibition at 50 mg/kg, po bid for 14 days. In kind it is functional, U-87MG ATCC. To be noted: U-87 MG, 336 h, read-out: TGI.
The nature of data set [19]: Plasma concentration in human MKN45 cells xenografted in mouse at 100 mg/kg, po up to 8 hrs. The data set is classed as ADME, organism-based, MKN-45. On the set-up: dose 100 mg/kg, route oral.
Data set [20] can be described thus: Volume of distribution at steady state in Sprague-Dawley rat at 2 mg/kg, iv. In kind it is ADME, organism-based. Also on record: dose 2 mg/kg, route intravenous. Conditions: in vivo, read-out: Vdss.
A short description of data set [21]: Clearance in CD1 mouse at 2 mg/kg, iv. The data set is classed as ADME, organism-based. Also on record: dose 2 mg/kg, route intravenous. To be noted: in vivo.

Regarding `C[C@@H](Oc1c(N)ncc2c(C3=CCN(C(N)=O)CC3)coc12)c1c(Cl)ccc(F)c1Cl`, the inhibition in vivo at 200 mg/kg in [1] was found to be 94%; with SNU-5 [2], 100%. Besides, the IC50 in [3] stood at 26 nM; in the data set on MKN-45 it was 130 nM; in [8], 42 nM; on Aurora kinase B it was 11 nM; in [13] it was 25 nM; in data set [14], 72 nM. Besides, the Activity is reported as 0% in the data set on Mus musculus [4], 31% in the data set with SNU-5 [9] and 8% in data set [10]. For the same compound, in data set [5], the solubility is over 100 µM. The compound further came in with a bioavailability in data set [6] of 72%. Further, the half-life is 2.9 h in data set [7] and 2 h in [15]. Also, the inhibition in vivo at 100 mg/kg was over 80% with Mus musculus [11], 45% in the data set with Mus musculus [12], 100% in the data set with SNU-5 [16] and 97% in data set [17]. Besides, the inhibition in vivo at 50 mg/kg in data set [18] came to 79%. In data set [19], this compound displayed a concentration at 8 h of over 3000 nM. Moreover, in data set [20], the Vd amounted to 6.8 L/kg. Further, the clearance in [21] amounted to 51 mL/min/kg.
